# Assay results published in patent US8802700B2 (Vertex Pharmaceuticals Incorporated, priority 2010, dated 2014).
# Molecular target: T1, ΔF508-CFTR (Homo sapiens, UniProt P13569, DEL508-508)
# T1 construct: expressed in transfected cells
# Assay: Membrane potential optical assay (FRET voltage-sensor dyes, VIPR), identification of potentiator compounds
# Format: cell-based
# Conditions: Table 3; assay not given
# Summary of the method: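 NIH3T3 mouse fibroblasts stably expressing ΔF508-CFTR, cultured 24 h at 27 °C, were loaded with FRET voltage dyes CC2-DMPE and DiSBAC2(3). Double-addition format: first addition of Cl⁻-free (gluconate) medium with or without compound; membrane-potential change read as fluorescence on VIPR II.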
# T1 sequence (P13569 with tags, fused parts or gaps DEL508-508): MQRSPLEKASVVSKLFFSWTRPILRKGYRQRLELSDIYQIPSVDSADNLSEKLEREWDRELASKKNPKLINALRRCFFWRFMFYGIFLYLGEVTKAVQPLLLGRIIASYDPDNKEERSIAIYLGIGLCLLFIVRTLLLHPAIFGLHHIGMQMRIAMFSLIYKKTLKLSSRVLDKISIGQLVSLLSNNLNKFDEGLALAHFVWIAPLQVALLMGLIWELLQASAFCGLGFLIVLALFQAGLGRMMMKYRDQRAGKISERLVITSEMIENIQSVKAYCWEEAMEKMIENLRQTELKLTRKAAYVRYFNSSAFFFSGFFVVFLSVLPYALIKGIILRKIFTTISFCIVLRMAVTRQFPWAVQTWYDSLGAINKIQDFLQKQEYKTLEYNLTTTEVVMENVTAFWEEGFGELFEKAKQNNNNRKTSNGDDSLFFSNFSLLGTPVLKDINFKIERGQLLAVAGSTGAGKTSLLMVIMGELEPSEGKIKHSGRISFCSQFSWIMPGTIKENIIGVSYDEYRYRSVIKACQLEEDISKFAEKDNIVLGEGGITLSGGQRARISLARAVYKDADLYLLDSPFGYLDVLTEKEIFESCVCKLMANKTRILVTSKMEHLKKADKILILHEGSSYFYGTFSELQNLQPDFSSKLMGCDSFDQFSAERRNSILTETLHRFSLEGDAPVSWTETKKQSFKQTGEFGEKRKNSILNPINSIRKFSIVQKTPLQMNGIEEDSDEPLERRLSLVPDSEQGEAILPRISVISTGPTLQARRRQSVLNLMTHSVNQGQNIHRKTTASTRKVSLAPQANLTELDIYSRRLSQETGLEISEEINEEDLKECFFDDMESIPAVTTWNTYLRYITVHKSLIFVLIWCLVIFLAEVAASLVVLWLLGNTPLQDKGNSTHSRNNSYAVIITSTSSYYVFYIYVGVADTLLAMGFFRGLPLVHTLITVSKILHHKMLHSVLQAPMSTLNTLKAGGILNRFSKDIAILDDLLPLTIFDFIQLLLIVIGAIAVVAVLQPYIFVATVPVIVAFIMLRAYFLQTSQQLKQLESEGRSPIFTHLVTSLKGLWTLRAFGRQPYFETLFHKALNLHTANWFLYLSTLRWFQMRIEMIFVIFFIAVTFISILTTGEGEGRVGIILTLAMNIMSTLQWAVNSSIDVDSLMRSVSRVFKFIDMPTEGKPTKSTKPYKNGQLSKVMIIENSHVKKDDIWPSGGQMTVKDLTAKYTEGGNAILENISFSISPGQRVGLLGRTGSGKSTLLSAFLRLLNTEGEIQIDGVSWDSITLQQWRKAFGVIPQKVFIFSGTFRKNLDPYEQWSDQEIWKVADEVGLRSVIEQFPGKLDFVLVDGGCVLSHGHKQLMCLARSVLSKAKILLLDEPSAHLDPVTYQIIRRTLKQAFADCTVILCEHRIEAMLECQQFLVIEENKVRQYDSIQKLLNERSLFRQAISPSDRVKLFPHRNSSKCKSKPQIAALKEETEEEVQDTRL
row,SMILES,EC50 [µM]
1,"O=C(Nc1ccccc1-c1ccncc1)c1c[nH]c2ccccc2c1=O [Compound 70, 4-oxo-N-[2-(4-pyridyl)phenyl]-1H-quinoline-3-carboxamide]",10 to 25
2,"COc1ccc(OC)c(-c2ccccc2NC(=O)c2c[nH]c3ccccc3c2=O)c1 [Compound 361, N-[2-(2,5-dimethoxyphenyl)phenyl]-4-oxo-1H-quinoline-3-carboxamide]",< 10
3,"Nc1cc(Cl)cc(NC(=O)c2c[nH]c3ccccc3c2=O)c1 [Compound 131, N-(3-amino-5-chloro-phenyl)-4-oxo-1H-quinoline-3-carboxamide]",< 10
4,"C[C@@H]1CCCN1c1ccc(NC(=O)c2c[nH]c3ccccc3c2=O)c(C(F)(F)F)c1 [Compound 572, (R)-N-(4-(2-methylpyrrolidin-1-yl)-2-(trifluoromethyl)phenyl)-4-oxo-1,4-dihydroquinoline-3-carboxamide]",< 10

# Same assay, conditions: Table 3; assay not given; read-out: % Activity (% Efficacy, relative efficacy)
row,SMILES,Emax [%]
1,"CC(C)(C)c1cc2cc[nH]c2cc1NC(=O)c1c[nH]c2c(C(F)(F)F)cccc2c1=O [Compound 559, 4-oxo-N-(5-tert-butyl-1H-indol-6-yl)-8-(trifluoromethyl)-1H-quinoline-3-carboxamide]",< 25
2,"CC(=O)Nc1cc(NC(=O)c2c[nH]c3ccccc3c2=O)cc(C(F)(F)F)c1 [Compound 379, N-[3-acetylamino-5-(trifluoromethyl)phenyl]-4-oxo-1H-quinoline-3-carboxamide]",25 to 100
3,"CC(C)(C)c1cc(F)c(NC(=O)c2c[nH]c3cc(C#N)ccc3c2=O)cc1O [Compound 677, 7-cyano-N-(2-fluoro-5-hydroxy-4-tert-butyl-phenyl)-4-oxo-1H-quinoline-3-carboxamide]",25 to 100
4,"CC(C)(C)c1cc(C(F)(F)F)c(NC(=O)c2c[nH]c3ccccc3c2=O)cc1O [Compound 266, N-[5-hydroxy-4-tert-butyl-2-(trifluoromethyl)phenyl]-4-oxo-1H-quinoline-3-carboxamide]",25 to 100
5,"CCOCCOc1cc(NC(=O)c2c[nH]c3ccccc3c2=O)ccc1C(C)(C)C [Compound 161, N-[3-(2-ethoxyethoxy)-4-tert-butyl-phenyl]-4-oxo-1H-quinoline-3-carboxamide]",25 to 100
6,"CC(C)(C)c1cc(C(C)(C)C)c(NC(=O)c2c[nH]c3ccc(Cl)cc3c2=O)cc1O [Compound 623, 6-chloro-N-(5-hydroxy-2,4-ditert-butyl-phenyl)-4-oxo-1H-quinoline-3-carboxamide]",25 to 100
7,"CCCc1ccc(NC(=O)c2c[nH]c3ccccc3c2=O)cc1NC(=O)OC [Compound 221, [5-[(4-oxo-1H-quinolin-3-yl)carbonylamino]-2-propyl-phenyl]aminoformic acid methyl ester]",25 to 100
8,"Cc1cccc2[nH]cc(C(=O)Nc3ccc(OC4CCCC4)cc3C(F)(F)F)c(=O)c12 [Compound 595, N-[4-cyclopentoxy-2-(trifluoromethyl)phenyl]-5-methyl-4-oxo-1H-quinoline-3-carboxamide]",25 to 100
9,"CC(C)(C)c1cc(F)c(NC(=O)c2c[nH]c3ccccc3c2=O)cc1O [Compound 143, N-(2-fluoro-5-hydroxy-4-tert-butyl-phenyl)-4-oxo-1H-quinoline-3-carboxamide]",25 to 100
10,"CC1(c2ccc(NC(=O)c3c[nH]c4cccc(O)c4c3=O)cc2O)CCCCC1 [Compound 606, 5-hydroxy-N-[3-hydroxy-4-(1-methylcyclohexyl)-phenyl]-4-oxo-1H-quinoline-3-carboxamide]",< 25
11,"COc1cc(NC(=O)c2c[nH]c3ccccc3c2=O)cc(C(F)(F)F)c1 [Compound 691, N-[3-methoxy-5-(trifluoromethyl)phenyl]-4-oxo-1H-quinoline-3-carboxamide]",25 to 100
12,"O=C(Nc1ccc(Cl)cn1)c1c[nH]c2ccccc2c1=O [Compound 170, N-(5-chloro-2-pyridyl)-4-oxo-1H-quinoline-3-carboxamide]",< 25
13,"Cc1ccccc1-c1nc2cc(NC(=O)c3c[nH]c4ccccc4c3=O)ccc2o1 [Compound 329, N-[2-(o-tolyl)benzooxazol-5-yl]-4-oxo-1H-quinoline-3-carboxamide]",25 to 100
14,"O=C(Nc1ccccc1-c1ccncc1)c1c[nH]c2ccccc2c1=O [Compound 70, 4-oxo-N-[2-(4-pyridyl)phenyl]-1H-quinoline-3-carboxamide]",25 to 100
15,"COc1ccc(OC)c(-c2ccccc2NC(=O)c2c[nH]c3ccccc3c2=O)c1 [Compound 361, N-[2-(2,5-dimethoxyphenyl)phenyl]-4-oxo-1H-quinoline-3-carboxamide]",> 100
16,"O=C(Nc1ccc(Cl)cc1)c1c[nH]c2ccccc2c1=O [Compound 405, N-(4-chlorophenyl)-4-oxo-1H-quinoline-3-carboxamide]",25 to 100
17,"CS(=O)(=O)c1ccc(-c2ccccc2NC(=O)c2c[nH]c3ccccc3c2=O)cc1 [Compound 326, N-[2-(4-methylsulfonylphenyl)phenyl]-4-oxo-1H-quinoline-3-carboxamide]",25 to 100
18,"Cc1ccc2c(=O)c(C(=O)Nc3cc4[nH]ccc4cc3C(F)(F)F)c[nH]c2c1 [Compound 576, 7-methyl-4-oxo-N-[5-(trifluoromethyl)-1H-indol-6-yl]-1H-quinoline-3-carboxamide]",25 to 100
19,"CC(C)(C)c1ccc(NC(=O)c2c[nH]c3ccccc3c2=O)cc1C#N [Compound 13, N-(3-cyano-4-tert-butyl-phenyl)-4-oxo-1H-quinoline-3-carboxamide]",25 to 100
20,"CCc1ccccc1NC(=O)c1c[nH]c2ccccc2c1=O [Compound 72, N-(2-ethylphenyl)-4-oxo-1H-quinoline-3-carboxamide]",25 to 100
21,"CN(C)c1cccc(NC(=O)c2c[nH]c3ccccc3c2=O)c1 [Compound 418, N-(3-dimethylaminophenyl)-4-oxo-1H-quinoline-3-carboxamide]",25 to 100

row,SMILES,Emax [%]
1,"O=C(Nc1ccc(Oc2ccccc2)cc1)c1c[nH]c2ccccc2c1=O [Compound 267, 4-oxo-N-(4-phenoxyphenyl)-1H-quinoline-3-carboxamide]",25 to 100
2,"O=C(Nc1ccc2cc(C(F)(F)F)[nH]c2c1)c1c[nH]c2ccc(F)cc2c1=O [Compound 495, 6-fluoro-4-oxo-N-[2-(trifluoromethyl)-1H-indol-6-yl]-1H-quinoline-3-carboxamide]",25 to 100
3,"O=C(Nc1ccccc1-c1ccc(F)c(F)c1)c1c[nH]c2ccccc2c1=O [Compound 76, N-[2-(3,4-difluorophenyl)phenyl]-4-oxo-1H-quinoline-3-carboxamide]",25 to 100
4,"CCc1cc2cc[nH]c2cc1NC(=O)c1c[nH]c2cccc(O)c2c1=O [Compound 591, N-(5-ethyl-1H-indol-6-yl)-5-hydroxy-4-oxo-1H-quinoline-3-carboxamide]",25 to 100
5,"Nc1cc(Cl)cc(NC(=O)c2c[nH]c3ccccc3c2=O)c1 [Compound 131, N-(3-amino-5-chloro-phenyl)-4-oxo-1H-quinoline-3-carboxamide]",25 to 100
6,"O=C(Nc1ccc(N2CCOCC2)cc1)c1c[nH]c2ccccc2c1=O [Compound 457, N-(4-morpholinophenyl)-4-oxo-1H-quinoline-3-carboxamide]",< 25
7,"O=C(Nc1ccc2c(c1)NCCC2)c1c[nH]c2ccccc2c1=O [Compound 299, 4-Oxo-N-(1,2,3,4-tetrahydroquinolin-7-yl)-1H-quinoline-3-carboxamide]",25 to 100
8,"O=C(Nc1ccc(N2CCC[C@@H]2C(=O)O)cc1C(F)(F)F)c1c[nH]c2ccccc2c1=O [Compound 698, (R)-1-[4-[(4-oxo-1H-quinolin-3-yl)carbonylamino]-3-(trifluoromethyl)phenyl]pyrrolidine-2-carboxylic acid]",25 to 100
9,"CC(C)c1ccc(-c2ccccc2NC(=O)c2c[nH]c3ccccc3c2=O)cc1 [Compound 432, N-[2-(4-isopropylphenyl)phenyl]-4-oxo-1H-quinoline-3-carboxamide]",25 to 100
10,"O=C(Nc1cc(O)c(C2CCCCC2)cc1C(F)(F)F)c1c[nH]c2ccccc2c1=O [Compound 619, N-[4-cyclohexyl-5-hydroxy-2-(trifluoromethyl)phenyl]-4-oxo-1H-quinoline-3-carboxamide]",> 100
11,"O=C(Nc1ccccc1-c1ccc2c(c1)OCO2)c1c[nH]c2ccccc2c1=O [Compound 135, N-(2-benzo[1,3]dioxol-5-ylphenyl)-4-oxo-1H-quinoline-3-carboxamide]",> 100
12,"CCc1cccc(CC)c1NC(=O)c1c[nH]c2ccccc2c1=O [Compound 325, N-(2,6-diethylphenyl)-4-oxo-1H-quinoline-3-carboxamide]",25 to 100
13,"C[C@@H]1CCCN1c1ccc(NC(=O)c2c[nH]c3ccccc3c2=O)c(C(F)(F)F)c1 [Compound 572, (R)-N-(4-(2-methylpyrrolidin-1-yl)-2-(trifluoromethyl)phenyl)-4-oxo-1,4-dihydroquinoline-3-carboxamide]",25 to 100
14,"CC(C)(CO)c1ccc(NC(=O)c2c[nH]c3ccccc3c2=O)cc1 [Compound 5, N-[4-(2-hydroxy-1,1-dimethyl-ethyl)phenyl]-4-oxo-1H-quinoline-3-carboxamide]",25 to 100
15,"CC(C)(C)OC(=O)N1CCC2(CCNc3cc(NC(=O)c4c[nH]c5ccccc5c4=O)ccc32)CC1 [Compound 238, 7′-[(4-oxo-1H-quinolin-3-ylcarbonyl)amino]-spiro[piperidine-4,4′(1′H)-quinoline], 2′,3′-dihydro-carboxylic acid tert-butyl ester]",25 to 100
16,"Cc1cccc2[nH]cc(C(=O)Nc3ccc(N4CCC[C@H]4C)cc3C(F)(F)F)c(=O)c12 [Compound 697, (R)-5-methyl-N-(4-(2-methylpyrrolidin-1-yl)-2-(trifluoromethyl)phenyl)-4-oxo-1,4-dihydroquinoline-3-carboxamide]",25 to 100
17,"O=C(Nc1ccc2c(c1)CCO2)c1c[nH]c2ccccc2c1=O [Compound 467, N-(2,3-dihydrobenzofuran-5-yl)-4-oxo-1H-quinoline-3-carboxamide]",< 25
18,"COc1cc(C#N)c(NC(=O)c2c[nH]c3ccccc3c2=O)cc1OC [Compound 106, N-(2-cyano-4,5-dimethoxy-phenyl)-4-oxo-1H-quinoline-3-carboxamide]",< 25
19,"CC(C)COC(=O)NCC(C)(C)c1ccc(NC(=O)c2c[nH]c3ccccc3c2=O)cc1 [Compound 251, [2-methyl-2-[4-[(4-oxo-1H-quinolin-3-yl)carbonylamino]phenyl]-propyl]aminoformic acid isobutyl ester]",25 to 100
20,"Cn1c(=O)oc2ccc(NC(=O)c3c[nH]c4ccccc4c3=O)cc21 [Compound 474, N-(3-methyl-2-oxo-3H-benzooxazol-5-yl)-4-oxo-1H-quinoline-3-carboxamide]",< 25
21,"CCOc1cccc(-c2cc(C(C)(C)C)c(O)cc2NC(=O)c2c[nH]c3ccccc3c2=O)c1 [Compound 43, N-[2-(3-ethoxyphenyl)-5-hydroxy-4-tert-butyl-phenyl]-4-oxo-1H-quinoline-3-carboxamide]",25 to 100
